Data: patent US20250161245A1, “A MIXTURE OF UREA, BIURET AND N-CONTAINING BY-PRODUCTS CREATED DURING BIURET PRODUCTION AS A DIETARY NON-PROTEIN NITROGEN-SOURCE FOR RUMINANTS AND USES THEREOF” (Yara International ASA, priority 2022, published 2025)

What was measured:
Type in all cases: in vivo, crossbred yearling steers
beef steers = test: enteric methane emission, SF6 tracer technique (Example 3)
Protocol: Methane emission was measured in all steers for five consecutive days using the SF6 tracer technique (Johnson et al., 1994; Henry et al., 2020). In this technique, the steers received a calibrated permeation tube filled with SF6 (3.1 g+0.2 g) before the measurement period. The average SF6 release rate was […]+1.1 mg/d. After five days of training, a vacuum gas collector canister was attached to each animal to collect a sample of daily gas production. Each day at the same hour, a new vacuum canister was replaced throughout the five days of the measurement period. Five collection canisters were used to determine environmental CH4 and SF6 concentrations. A gas sample was taken from each canister and conserved in 120 ml bottles for posterior analysis of CH4 and SF6 using gas chromatography. For the current experiment, only steers with a least three successful days of collection and measurement were considered in the final analysis. Gas samples were analyzed by gas chromatography (Agilent 7820A GC, Agilent Technologies, Palo Alto, CA). A flame ionization and electron capture detector were used for CH4 and SF6 analysis, respectively, with a capillary column (Plot Fused Silica 25 m×0.32 mm, Coating Molsieve 5A, Varian CP7536, Varian Inc., Lake Forest, CA). The injector, column and detector temperatures for CH4 analysis were 80, 160 and 200° C., respectively. For SF6, temperatures were 50, 30 and 300° C. for the injector, the column and the detector, respectively. The carrier gas for CH4 and SF6 was N2. The emissions of CH4 were calculated according to the next equation:
[formula] • QCH4=CH4 emissions per animal (g/day) • QSF6=SF6 release rate (mg/day) • [CH4]γ=the concentration of CH4 in the animals' collection canister • [CH4]β=the concentration of CH4 in the environmental collection canister • [SF6]γ=the concentration of SF6 in the animals' collection canister • [SF6]β=the concentration of SF6 in the environmental collection canister

[1] = animal performance of steers with NPN supplementation (Example 3)
[2] = as above; remark: listed apart in the source
From the text: A total of 72 crossbred yearling steers [303 kg±29 kg initial body weight (BW) were stratified by body weight (BW) and randomly allocated to three treatments. All steers consumed a basal diet of corn silage, cotton-gin trash, and a premix of vitamins and minerals.
The steers were housed in pens (8 steers/pen, 3 pens/treatment). The steers were supplemented with two different NPN-sources on an isonitrogenous basis, considering as reference the N provided by urea when included at 1 wt. % of the diet in dry matter (DM) basis.
In Table 5, the composition of the basal diet supplemented with two different types of NPN, i.e. urea (Urea) (46% N) and a mixture of urea and biuret according to the present disclosure (UB), with composition as in example 1 (41% N) is shown.
The gain to feed ratio (G:F) was computed as the ratio of the average daily gain (ADG) to daily dry matter intake (DMI). The feed intake was recorded daily. The individual intake was determined via the GrowSafe® intake monitoring system. In cattle management, GrowSafe Systems is a commonly used tool to closely monitor individual animal feeding data using radio frequency identification (RFID) tag technology. The animals are equipped with a unique RFID tag that is read by the feed bunks each time the animal lowers its head into the bunk to consume feed. Average daily weight gain (ADG) and feed efficiency were calculated during the performance evaluation. The ADG was determined by the difference between the final BW and the initial BW divided by the number of days of the performance evaluation (56 days). The initial BW was calculated as the average unshrunk BW of […] on days 16 and 17. The final BW was the average unshrunk BW measured on days 72 and 73. The unshrunk BW was obtained every 14 days.

[3] = five consecutive days, SF6 tracer

What does the source list for `NC(N)=O` [Urea, urea]?
DM intake (beef steers; Table 7 (methane measurement)): 6.08 kg/day; Methane emission (g/kg ADG) (beef steers; [3]): 213.79 g/kg ADG; Methane emission (g/kg DMI) (beef steers; [3]): 36.59 g/kg DMI; Methane emission (g/kg OMI) (beef steers; [3]): 38.68 g/kg OMI; ADG ([1]; days 0-14): 0.78 kg; ADG ([1]; days 0-28): 0.81 kg; ADG ([1]; days 0-42): 1.02 kg; DMI ([2]; days 0-14): 6.82 kg/day; G:F ([2]; days 0-14): 0.10 kg/kg; DMI ([2]; days 0-28): 7.03 kg/day; G:F ([2]; days 0-28): 0.11 kg/kg; DMI ([2]; days 0-42): 7.24 kg/day; G:F ([2]; days 0-42): 0.14 kg/kg; ADG ([2]; days 0-56): 1.01 kg; DMI ([2]; days 0-56): 7.29 kg/day; G:F ([2]; days 0-56): 0.14 kg/kg; DMI (% of BW) ([2]; steers): 2.31 % of BW; NEg ([2]; steers): 0.55 Mcal/kg of DM; Initial BW ([2]; steers, baseline, NPN 1.00 wt. % urea or 1.12 wt. % UB of diet DM): 288.69 kg; Final BW ([2]; steers, end of 56 days performance evaluation): 343.69 kg
